Experimental data published in ChEMBL document CHEMBL1201862, “PubChem BioAssay data set” (2004).
Active and inactive are the calls of the source.

Key:
[1] = target: Long-chain-fatty-acid--AMP ligase FadD28 (Mycobacterium tuberculosis, UniProt P9WQ59); assay: Fluorescence polarization aasay to screen for inhibitors that compete for the binding of FadD28 to a bisubstrate Measured in Biochemical System Using Plate Reader - 2147-01_Inhibitor_Dose_CherryPick_Activity.; format: functional, Mycobacterium tuberculosis H37Rv
Long-chain-fatty-acid--AMP ligase FadD28, sequence (P9WQ59 whole entry): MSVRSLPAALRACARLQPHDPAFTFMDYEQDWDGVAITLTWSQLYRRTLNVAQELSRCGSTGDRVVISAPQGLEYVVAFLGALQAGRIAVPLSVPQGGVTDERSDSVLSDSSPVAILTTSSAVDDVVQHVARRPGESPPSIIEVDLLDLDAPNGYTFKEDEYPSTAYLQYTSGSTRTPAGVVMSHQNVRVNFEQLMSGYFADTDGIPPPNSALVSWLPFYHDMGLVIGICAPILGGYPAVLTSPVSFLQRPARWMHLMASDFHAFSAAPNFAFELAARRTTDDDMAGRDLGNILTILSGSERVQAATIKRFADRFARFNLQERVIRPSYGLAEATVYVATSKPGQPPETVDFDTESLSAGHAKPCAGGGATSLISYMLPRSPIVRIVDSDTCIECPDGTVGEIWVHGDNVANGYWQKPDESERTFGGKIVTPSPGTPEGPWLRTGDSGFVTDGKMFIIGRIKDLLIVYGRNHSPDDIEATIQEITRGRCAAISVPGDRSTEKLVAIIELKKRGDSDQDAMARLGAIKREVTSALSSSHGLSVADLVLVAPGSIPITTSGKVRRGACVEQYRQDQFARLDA

[2] = target: T1, Type-1 angiotensin II receptor (Homo sapiens, UniProt P30556); assay: antagonism of angiotensin II type 1 receptor – cell-based, uHTS hits, selectivity assay for APJ receptor antagonist project, dose response (AID 463214); format: functional;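 further: antagonist potency against angiotensin II stimulated AT1 response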
T1 sequence (P30556 whole entry): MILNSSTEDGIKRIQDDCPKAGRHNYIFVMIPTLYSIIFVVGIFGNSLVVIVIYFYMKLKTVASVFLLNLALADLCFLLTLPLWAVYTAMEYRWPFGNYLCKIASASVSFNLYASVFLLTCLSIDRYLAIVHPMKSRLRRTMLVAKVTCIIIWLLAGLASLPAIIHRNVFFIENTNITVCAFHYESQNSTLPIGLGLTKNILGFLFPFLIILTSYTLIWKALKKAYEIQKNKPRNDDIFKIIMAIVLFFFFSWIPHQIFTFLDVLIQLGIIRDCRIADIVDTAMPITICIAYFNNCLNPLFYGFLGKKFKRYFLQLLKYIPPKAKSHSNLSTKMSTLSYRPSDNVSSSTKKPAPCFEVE

[3] = target: Beta-galactosidase (Escherichia coli, UniProt Q8VNN2); assay: PubChem AID 485352; format: functional
Beta-galactosidase, sequence (Q8VNN2 whole entry): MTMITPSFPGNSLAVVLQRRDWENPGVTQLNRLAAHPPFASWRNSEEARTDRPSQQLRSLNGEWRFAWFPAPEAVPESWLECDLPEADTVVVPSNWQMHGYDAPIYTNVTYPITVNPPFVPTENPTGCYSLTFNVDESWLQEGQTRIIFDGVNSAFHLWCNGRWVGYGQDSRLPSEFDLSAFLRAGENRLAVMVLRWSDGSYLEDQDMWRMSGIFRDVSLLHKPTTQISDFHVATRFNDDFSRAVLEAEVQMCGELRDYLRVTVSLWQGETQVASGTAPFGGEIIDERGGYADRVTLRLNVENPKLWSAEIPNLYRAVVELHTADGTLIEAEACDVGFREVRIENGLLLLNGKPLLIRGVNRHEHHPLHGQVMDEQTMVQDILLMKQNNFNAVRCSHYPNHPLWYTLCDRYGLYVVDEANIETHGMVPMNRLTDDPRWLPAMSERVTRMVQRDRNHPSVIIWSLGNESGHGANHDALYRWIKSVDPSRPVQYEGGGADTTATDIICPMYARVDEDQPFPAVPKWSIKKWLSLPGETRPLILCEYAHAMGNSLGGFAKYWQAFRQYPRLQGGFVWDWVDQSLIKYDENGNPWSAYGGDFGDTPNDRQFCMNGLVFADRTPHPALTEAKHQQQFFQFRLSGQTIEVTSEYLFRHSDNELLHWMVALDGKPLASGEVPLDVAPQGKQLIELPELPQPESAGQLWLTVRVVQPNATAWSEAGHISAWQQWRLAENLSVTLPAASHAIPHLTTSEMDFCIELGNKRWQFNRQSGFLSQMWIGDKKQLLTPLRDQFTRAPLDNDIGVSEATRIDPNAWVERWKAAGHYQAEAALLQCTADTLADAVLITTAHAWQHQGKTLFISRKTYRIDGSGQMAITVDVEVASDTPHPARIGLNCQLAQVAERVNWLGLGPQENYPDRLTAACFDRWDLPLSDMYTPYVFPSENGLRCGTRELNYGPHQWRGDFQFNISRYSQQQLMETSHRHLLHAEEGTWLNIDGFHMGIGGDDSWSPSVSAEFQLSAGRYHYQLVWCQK

[4] = target: T2, Sentrin-specific protease 8 (Homo sapiens, UniProt Q96LD8); format: functional
T2 sequence (Q96LD8 whole entry): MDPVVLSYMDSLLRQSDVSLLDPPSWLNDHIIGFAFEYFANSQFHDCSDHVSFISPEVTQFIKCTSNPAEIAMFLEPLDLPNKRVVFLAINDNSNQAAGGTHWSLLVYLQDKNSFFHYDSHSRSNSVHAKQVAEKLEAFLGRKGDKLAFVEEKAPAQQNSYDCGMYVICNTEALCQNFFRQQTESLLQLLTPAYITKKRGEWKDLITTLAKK

[5] = target: T3, Caspase-3 (Homo sapiens, UniProt P42574); assay: Dose-response confirmation of uHTS inhibitor hits of Sentrin-Specific Protease 8 in a Caspase-3 Fluorescence assay.; format: functional
T3 sequence (P42574 whole entry): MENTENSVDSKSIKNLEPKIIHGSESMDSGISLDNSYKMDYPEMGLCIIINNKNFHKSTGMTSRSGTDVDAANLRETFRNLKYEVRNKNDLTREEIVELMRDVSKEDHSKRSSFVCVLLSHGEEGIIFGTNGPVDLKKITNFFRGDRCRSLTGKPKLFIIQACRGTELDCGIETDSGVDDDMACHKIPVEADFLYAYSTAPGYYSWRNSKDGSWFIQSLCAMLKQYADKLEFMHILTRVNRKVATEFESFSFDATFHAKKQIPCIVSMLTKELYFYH

[6] = target: T2, Sentrin-specific protease 8; format: functional; remark: listed apart in the source
[7] = target: 5-hydroxytryptamine receptor 2A (Mus musculus, UniProt P35363); format: functional, cell-based;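 further: CHO-K1 cells with tagged receptor and beta-arrestin; agonist potency measured as compound-induced activation of the receptor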
5-hydroxytryptamine receptor 2A, sequence (P35363 whole entry): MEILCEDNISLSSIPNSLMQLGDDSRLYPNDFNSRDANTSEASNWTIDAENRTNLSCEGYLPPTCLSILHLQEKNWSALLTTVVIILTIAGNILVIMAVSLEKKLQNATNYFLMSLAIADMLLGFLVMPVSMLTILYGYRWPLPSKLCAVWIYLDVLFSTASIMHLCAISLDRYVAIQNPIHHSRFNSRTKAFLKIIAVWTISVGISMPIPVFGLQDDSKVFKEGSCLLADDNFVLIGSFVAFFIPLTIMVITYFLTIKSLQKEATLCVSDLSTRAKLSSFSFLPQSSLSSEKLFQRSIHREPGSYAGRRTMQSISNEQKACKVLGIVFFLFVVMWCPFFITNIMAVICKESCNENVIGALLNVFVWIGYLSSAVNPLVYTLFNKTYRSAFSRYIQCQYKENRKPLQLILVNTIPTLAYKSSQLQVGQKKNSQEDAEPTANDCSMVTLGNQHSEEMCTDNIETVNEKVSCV

[8] = target: Mu-type opioid receptor (Homo sapiens, UniProt P35372); format: functional, cell-based;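 further: U2OS cells with beta-arrestin recruitment to OPRM1 by beta-gal complementation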
Mu-type opioid receptor, sequence (P35372 whole entry, the tested form may be a part): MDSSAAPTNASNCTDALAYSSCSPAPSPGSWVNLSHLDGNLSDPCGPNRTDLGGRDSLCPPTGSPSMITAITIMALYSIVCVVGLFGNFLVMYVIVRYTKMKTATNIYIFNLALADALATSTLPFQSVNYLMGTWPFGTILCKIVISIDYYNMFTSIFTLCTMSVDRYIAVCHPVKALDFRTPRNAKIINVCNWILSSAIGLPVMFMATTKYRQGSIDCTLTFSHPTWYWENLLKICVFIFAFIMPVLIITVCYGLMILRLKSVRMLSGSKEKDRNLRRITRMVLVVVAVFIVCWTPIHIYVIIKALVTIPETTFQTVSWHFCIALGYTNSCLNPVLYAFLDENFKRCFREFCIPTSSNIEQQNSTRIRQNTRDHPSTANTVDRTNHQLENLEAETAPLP

[9] = off-target signal loss in HeLa-CEM21 co-culture – HeLa F-luc CTL cells, cherry-picked, counter-screen for HIV-1 Env fusion inhibitor project, dose response (AID 652040); format: functional, cell-based;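 further: potency for signal decrease marking cytotoxic or nonspecific inhibition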
[10] = blockers of HIV-1 envelope-mediated cell-cell fusion – cherry-pick, dose response (AID 652057); format: functional, cell-based
[11] = tested on: Escherichia coli; assay: microbe, parasite or virus in culture
[12] = tested on: Escherichia coli; assay: microbe, parasite or virus in culture; remark: listed apart in the source
[13] = viability loss in CEM21 cells – cell-based, CellTiter-Glo luminescence, cherry-picked, cytotoxicity control for viral fusion inhibitor project, dose response (AID 652042); format: functional;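 further: potency for signal decrease meaning cytotoxicity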
[14] = microbe, parasite or virus in culture; format: functional; details: Mycobacterium tuberculosis
[15] = HIV-1 AD8 envelope cell-cell fusion blockers – cherry-pick, dose response (AID 652062); format: functional, cell-based;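 further: luciferase signal from cell-cell fusion driven by HIV-1 clade B AD8 Env; potency is for inhibitors of fusion seen as a drop in luminescence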
[16] = blockers of HIV-1 ZM109 envelope-driven cell-cell fusion – HeLa effector, CEM target cells, luciferase, cherry-pick, dose response (AID 652058); format: functional, cell-based;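 further: luciferase signal from HIV-1 Env mediated cell-cell fusion of effector and target cells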
[17] = target: T4, Protein RecA (Mycobacterium tuberculosis, UniProt P9WHJ3); assay: Fluorescence Cell-Free Homogeneous Dose Retest to Identify Inhibitors of RecA-Intein Splicing Activity. [Related pubchem assays (depositor defined):AID2097, AID2223, AID489010, AID492950]; format: functional
T4 sequence (P9WHJ3 whole entry): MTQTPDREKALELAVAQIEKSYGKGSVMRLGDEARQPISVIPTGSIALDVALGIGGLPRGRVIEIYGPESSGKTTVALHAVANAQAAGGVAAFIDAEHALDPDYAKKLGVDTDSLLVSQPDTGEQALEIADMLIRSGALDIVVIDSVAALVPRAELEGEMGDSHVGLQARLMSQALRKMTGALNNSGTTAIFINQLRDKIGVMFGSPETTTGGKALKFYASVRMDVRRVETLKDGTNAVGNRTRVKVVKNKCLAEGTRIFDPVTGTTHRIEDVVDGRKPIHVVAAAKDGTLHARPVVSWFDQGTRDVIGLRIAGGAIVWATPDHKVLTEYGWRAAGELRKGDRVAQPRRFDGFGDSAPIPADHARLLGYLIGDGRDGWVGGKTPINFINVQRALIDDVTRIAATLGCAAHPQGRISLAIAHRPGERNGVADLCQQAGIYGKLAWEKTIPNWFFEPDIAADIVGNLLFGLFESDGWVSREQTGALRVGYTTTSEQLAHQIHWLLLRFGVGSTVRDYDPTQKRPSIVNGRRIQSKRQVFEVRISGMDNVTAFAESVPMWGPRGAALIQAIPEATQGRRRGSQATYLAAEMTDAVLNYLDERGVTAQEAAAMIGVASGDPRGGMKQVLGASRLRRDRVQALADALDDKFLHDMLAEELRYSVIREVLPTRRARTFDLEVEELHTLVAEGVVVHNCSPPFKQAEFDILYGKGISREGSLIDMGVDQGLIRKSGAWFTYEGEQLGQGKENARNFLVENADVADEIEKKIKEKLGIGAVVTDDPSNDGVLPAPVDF

[18] = target: T5, Tyrosyl-DNA phosphodiesterase 2 (Homo sapiens, UniProt O95551); assay: potency against TDP2 phosphodiesterase activity – biochemical, epi absorbance, IC50, dose response (AID 743297)
T5 sequence (O95551 whole entry): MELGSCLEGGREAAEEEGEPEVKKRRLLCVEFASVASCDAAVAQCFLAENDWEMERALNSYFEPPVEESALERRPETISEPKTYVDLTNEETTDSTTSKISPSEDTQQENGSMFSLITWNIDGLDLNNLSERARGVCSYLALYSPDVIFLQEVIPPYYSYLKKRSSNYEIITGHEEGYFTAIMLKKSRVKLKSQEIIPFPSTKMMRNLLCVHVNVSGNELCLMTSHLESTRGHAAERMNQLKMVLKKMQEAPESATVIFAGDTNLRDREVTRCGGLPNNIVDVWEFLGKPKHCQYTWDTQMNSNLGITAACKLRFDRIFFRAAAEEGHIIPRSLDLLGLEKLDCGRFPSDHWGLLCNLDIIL

[19] = target: Arf-GAP with SH3 domain, ANK repeat and PH domain-containing protein 1 (Homo sapiens, UniProt Q9ULH1); format: functional;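 further: biochemical fluorescence polarization dose–response screen measuring inhibition of ASAP1; ASAP1 GAP domain stimulating GTP hydrolysis by truncated human ARF1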
Arf-GAP with SH3 domain, ANK repeat and PH domain-containing protein 1, sequence (Q9ULH1 whole entry, the tested form may be a part): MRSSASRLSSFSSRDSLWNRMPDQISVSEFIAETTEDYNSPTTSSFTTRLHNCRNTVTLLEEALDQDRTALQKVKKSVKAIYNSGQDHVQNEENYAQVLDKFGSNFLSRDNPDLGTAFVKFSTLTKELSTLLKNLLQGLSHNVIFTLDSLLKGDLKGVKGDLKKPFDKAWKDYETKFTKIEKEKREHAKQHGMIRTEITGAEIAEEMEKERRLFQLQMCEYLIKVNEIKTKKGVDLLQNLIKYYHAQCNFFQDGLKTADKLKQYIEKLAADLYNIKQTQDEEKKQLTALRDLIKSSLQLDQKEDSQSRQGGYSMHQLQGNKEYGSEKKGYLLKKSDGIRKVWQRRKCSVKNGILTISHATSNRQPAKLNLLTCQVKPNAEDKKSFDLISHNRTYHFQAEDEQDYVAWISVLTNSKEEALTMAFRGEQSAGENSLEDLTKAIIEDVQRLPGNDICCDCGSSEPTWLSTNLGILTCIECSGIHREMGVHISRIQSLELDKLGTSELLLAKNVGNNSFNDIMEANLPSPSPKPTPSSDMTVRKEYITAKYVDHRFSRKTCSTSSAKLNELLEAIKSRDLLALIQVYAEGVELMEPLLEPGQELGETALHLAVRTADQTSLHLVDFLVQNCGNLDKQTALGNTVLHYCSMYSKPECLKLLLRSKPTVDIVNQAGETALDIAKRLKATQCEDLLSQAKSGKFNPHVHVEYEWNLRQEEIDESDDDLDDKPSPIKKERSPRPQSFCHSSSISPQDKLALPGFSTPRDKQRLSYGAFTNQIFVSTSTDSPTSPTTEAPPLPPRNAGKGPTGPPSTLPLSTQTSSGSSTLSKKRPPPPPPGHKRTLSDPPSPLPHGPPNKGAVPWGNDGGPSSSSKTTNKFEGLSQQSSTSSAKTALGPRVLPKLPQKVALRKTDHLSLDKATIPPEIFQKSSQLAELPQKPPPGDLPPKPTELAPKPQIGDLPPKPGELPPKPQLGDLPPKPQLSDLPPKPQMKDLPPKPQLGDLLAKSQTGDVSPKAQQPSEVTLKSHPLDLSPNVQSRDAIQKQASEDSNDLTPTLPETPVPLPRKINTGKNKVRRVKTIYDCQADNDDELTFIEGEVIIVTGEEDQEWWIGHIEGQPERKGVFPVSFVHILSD

[20] = target: T6, Apoptotic protease-activating factor 1 (Homo sapiens, UniProt O14727); format: functional
T6 sequence (O14727 whole entry): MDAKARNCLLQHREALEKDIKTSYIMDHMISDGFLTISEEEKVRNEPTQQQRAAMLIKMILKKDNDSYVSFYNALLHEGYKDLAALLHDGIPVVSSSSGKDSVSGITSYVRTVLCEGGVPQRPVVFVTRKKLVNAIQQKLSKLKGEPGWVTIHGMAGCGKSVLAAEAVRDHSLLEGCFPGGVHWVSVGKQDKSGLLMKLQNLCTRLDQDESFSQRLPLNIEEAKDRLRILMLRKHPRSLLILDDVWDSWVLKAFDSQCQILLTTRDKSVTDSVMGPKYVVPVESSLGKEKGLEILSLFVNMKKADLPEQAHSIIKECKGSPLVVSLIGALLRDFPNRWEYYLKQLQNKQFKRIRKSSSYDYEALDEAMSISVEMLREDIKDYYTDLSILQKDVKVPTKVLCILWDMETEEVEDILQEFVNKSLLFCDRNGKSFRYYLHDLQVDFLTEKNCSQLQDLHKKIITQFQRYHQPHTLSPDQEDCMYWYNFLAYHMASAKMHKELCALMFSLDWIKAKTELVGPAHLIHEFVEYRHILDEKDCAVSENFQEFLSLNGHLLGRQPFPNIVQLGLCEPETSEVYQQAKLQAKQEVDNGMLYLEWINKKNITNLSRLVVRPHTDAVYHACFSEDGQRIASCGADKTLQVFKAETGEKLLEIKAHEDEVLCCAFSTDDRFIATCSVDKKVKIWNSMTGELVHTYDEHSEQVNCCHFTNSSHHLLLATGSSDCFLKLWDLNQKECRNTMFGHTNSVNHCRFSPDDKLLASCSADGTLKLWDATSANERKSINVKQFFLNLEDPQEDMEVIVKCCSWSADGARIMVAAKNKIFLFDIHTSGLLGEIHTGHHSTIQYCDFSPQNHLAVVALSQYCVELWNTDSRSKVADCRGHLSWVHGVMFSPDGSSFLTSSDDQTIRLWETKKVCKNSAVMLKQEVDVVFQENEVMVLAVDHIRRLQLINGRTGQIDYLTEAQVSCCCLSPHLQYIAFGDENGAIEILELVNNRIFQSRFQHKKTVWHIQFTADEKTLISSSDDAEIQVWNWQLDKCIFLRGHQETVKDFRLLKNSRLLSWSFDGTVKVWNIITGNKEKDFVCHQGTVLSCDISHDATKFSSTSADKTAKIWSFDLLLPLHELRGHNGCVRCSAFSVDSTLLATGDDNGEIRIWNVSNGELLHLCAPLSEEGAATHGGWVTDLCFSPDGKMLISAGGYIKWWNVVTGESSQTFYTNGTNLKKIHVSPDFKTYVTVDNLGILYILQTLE

[21] = target: T7, Replicative DNA helicase DnaB (Mycobacterium tuberculosis, UniProt P9WMR3); assay: DnaB intein splicing inhibitors, dose response, biochemical, cell-free fluorescence (AID 449749); format: functional
T7 sequence (P9WMR3 whole entry): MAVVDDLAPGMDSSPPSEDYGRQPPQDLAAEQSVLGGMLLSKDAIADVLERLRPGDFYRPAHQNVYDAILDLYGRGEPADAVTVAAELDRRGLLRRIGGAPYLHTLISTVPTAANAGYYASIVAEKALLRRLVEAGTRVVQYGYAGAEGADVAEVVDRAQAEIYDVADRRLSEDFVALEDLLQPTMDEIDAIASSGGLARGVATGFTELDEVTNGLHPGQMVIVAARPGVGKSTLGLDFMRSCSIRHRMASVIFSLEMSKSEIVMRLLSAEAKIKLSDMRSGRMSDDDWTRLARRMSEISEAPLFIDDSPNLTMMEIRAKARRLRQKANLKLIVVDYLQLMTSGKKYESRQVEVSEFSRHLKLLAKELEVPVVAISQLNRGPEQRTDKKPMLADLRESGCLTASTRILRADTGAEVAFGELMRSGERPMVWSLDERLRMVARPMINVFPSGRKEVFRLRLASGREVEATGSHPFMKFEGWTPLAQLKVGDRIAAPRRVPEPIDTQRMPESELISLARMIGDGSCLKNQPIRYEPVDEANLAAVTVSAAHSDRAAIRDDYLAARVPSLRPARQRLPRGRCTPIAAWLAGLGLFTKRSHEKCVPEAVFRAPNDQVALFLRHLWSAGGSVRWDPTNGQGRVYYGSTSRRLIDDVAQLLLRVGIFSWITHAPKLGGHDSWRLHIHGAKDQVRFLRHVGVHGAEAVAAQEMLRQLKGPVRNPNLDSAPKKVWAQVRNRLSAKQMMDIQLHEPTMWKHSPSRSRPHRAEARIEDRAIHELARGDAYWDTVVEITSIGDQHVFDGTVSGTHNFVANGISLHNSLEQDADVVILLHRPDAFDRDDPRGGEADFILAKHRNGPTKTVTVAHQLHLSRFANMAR

[22] = Counterscreen for inhibitors of Trypanosoma brucei methionyl tRNA synthetase (MetRS): Luminescence-based cell-based high throughput dose response assay to identify compounds that are cytotoxic to Jurkat human T lymphocyte cells.; format: functional
[23] = target: T8, Methionyl-tRNA synthetase, putative (Trypanosoma brucei brucei, UniProt Q38C91); format: functional, Trypanosoma brucei brucei strain 927/4 GUTat10.1
T8 sequence (Q38C91 whole entry): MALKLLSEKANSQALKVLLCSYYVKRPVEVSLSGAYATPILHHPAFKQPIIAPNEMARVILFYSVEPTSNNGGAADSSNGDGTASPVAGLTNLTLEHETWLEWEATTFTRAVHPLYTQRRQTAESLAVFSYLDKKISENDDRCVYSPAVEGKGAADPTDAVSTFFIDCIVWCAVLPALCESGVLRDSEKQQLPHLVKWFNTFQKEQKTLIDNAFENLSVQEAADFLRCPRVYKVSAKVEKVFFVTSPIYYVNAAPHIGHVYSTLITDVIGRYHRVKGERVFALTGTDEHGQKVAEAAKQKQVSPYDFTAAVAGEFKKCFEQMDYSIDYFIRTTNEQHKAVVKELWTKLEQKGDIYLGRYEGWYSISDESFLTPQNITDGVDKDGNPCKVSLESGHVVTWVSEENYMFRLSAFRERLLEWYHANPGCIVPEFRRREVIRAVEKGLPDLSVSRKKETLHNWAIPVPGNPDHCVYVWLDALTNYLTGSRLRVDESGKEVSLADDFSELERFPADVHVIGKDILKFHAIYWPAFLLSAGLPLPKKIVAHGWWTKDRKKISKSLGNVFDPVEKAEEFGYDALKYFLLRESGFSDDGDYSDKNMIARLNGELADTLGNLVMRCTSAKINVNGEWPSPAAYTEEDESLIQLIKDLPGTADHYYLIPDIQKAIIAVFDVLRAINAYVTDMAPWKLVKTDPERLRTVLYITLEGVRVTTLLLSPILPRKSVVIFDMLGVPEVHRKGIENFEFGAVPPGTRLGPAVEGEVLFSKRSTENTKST

[24] = target: T8, Methionyl-tRNA synthetase, putative; format: functional, Trypanosoma brucei brucei strain 927/4 GUTat10.1; remark: listed apart in the source
[25] = mouse fibroblast viability loss – cell-based, cherry-pick samples, set 2, cytotoxicity control for T. cruzi growth inhibitor project, dose response (AID 651817); format: functional; details: NIH3T3

Cc1ccc(NC(=S)NNC(=O)c2ccc(N3CCOCC3)c([N+](=O)[O-])c2)cc1Cl
AC50 [1]: 30.9 µM (active) | IC50 [2]: > 40 µM (not active) | EC50 [3]: > 40 µM (inactive)

Cc1ccc(S(=O)(=O)N2CCOCC2)cc1C(=O)OCC(=O)N1CCc2ccccc2C1
IC50 [4]: 62.2 µM (inactive) | IC50 [5]: 92.7 µM (inactive) | IC50 [6]: 24.4 µM (active)

CN(C)c1ccc(O)c2c1CC1CC3[C@@H](N(C)C)C(=O)C(C(N)=O)C(=O)[C@]3(O)C(=O)C1C2=O (stereo not given in full)
EC50 [7]: 0.659 µM (active) | EC50 [8]: 92.5 µM (inactive) | AC50 [9]: < 0.26 µM (active) | AC50 [10]: < 0.26 µM (active) | AC50 [11]: 1.35 µM (active) | AC50 [12]: 11.8 µM (active) | AC50 [13]: 61.2 µM (active) | CC50 [14]: 29 µM (active) | AC50 [15]: < 0.26 µM (active) | AC50 [16]: < 0.26 µM (active)

CC(=O)c1cccc(-c2ccc3c(=O)[nH]c(Nc4ccccc4)cc3c2)c1
EC50 [17]: 2.14 µM (active) | IC50 [18]: 25.9 µM (inactive) | IC50 [19]: 165 µM (inactive) | IC50 [20]: 3.02 µM (active) | AC50 [21]: > 380 µM (inactive)

CSC[C@H]1CN(Cc2cccnc2)C(=O)[C@@H]1CC(=O)Nc1ccc(Br)cc1
IC50 [22]: 83.3 µM (inactive) | IC50 [23]: 3.02 µM (active) | IC50 [24]: 7.58 µM (active)

Cc1ccc(S(=O)(=O)N(C)C[C@@H]2Oc3c(NC(=O)c4nc5ccccc5s4)cccc3C(=O)N([C@@H](C)CO)C[C@@H]2C)cc1
AC50 [25]: 39 µM (inactive)
